Laboratory results from patent US5118685A, “Aminopropanol derivatives of substituted 2-hydroxy-propiophenones, and therapeutic agents containing these compounds” (BASF Aktiengesellschaft, priority 1983, dated 1992).

How the values were obtained:
[1] = system: aconitine-induced arrythmia in the dog; assay: Antiarrhythmic action on aconitine-induced arrythmia in the dog (oral administration); type: in vivo, dog (male or female mongrel dogs); conditions: for change in vivo at 10 mg/kg: Canis lupus familiaris, po, 1 h, read-out: Prolongation of aconitin infusion period; for prolongation of time before arrhythmias appeared, relative to that obtained with propafenone and diprafenone (times greater): dog, 10 mg/kg, oral
Experimental: Male or female mongrel dogs weighing 12-15 kg were used. The substances to be tested were administered orally, 40 minutes after induction of anesthesia using Na pentobarbital (30 mg/kg i.v.). Cardiac arrhythmias were induced by infusion of aconitine (5 μg per kg per min), the infusion beginning 60 minutes after administration of the substance. In the ECG of untreated animals, arrhythmias (loss or inversion of P, ventricular tachyarrhythmias) occurred after an average infusion time of 6.4±0.29 min.
When the substances according to the invention were administered in a dose of 10 mg/kg, the time which elapsed before arrhythmias appeared was prolonged. […]; the antiarrhythmic activity is higher (Table 1).

in vivo = conditions: mouse, ip, single administration i.p., female NMRI mice, approximate values
[2] = system: arrhythmias after infarct in the conscious dog; assay: Antiarrhythmic action on arrhythmias after infarct (coronary ligature) in the conscious dog; type: in vivo, dog (male and female beagle dogs); conditions: for inhibition of arrhythmias compared with propafenone and diprafenone (in words) / Increase in normal heart actions: oral
Experimental: The substances were also tested with regard to their action on arrhythmias after coronary ligature. This method permits conclusions to be drawn as to the action on arrhythmias after infarct in man. Male and female beagle dogs weighing 9-15 kg were used. The ramus descendens of the left coronary artery was ligatured by a modified method of Harris (Circulation, 1, 1318-1328, 1950). Tachycardic, usually ventricular arrhythmias of various origins resulted which were detectable on the ECG, with P loss QRS deformation and T wave elevation. The measure for determining antiarrhythmic action was the frequency (%) of normal heart actions ascertained during a 100-minute control period at 5-minute intervals. Hearbeats had to be at most 29% of the normal during this control period before a substance was administered. After administration, the ECG was run, as in the control period, for 100 minutes at 5-minute intervals, and then for a further 200 minutes at 10-minute intervals.

SMILES	change in vivo at 10 mg/kg [1]	LD50 (in vivo)	prolongation of time before arrhythmias appeared, relative to that obtained with propafenone and diprafenone (times greater) [1]	inhibition of arrhythmias compared with propafenone and diprafenone (in words) [2]	Increase in normal heart actions ([2]; dose 10.0 mg/kg)	oral dosage rate giving inhibition of arrhythmias as great as propafenone (times less) ([2]; relative to propafenone)	Increase in normal heart actions ([2]; dose 21.5 mg/kg)
CCC(C)(C)NCC(O)COc1ccccc1C(=O)CCc1cnn(C)c1 (centres unmarked) [Example 12]	137%	68.1 mg/kg	–	–	–	–	–
CC(C)NCC(O)COc1ccccc1C(=O)CCc1ccn(C)c1 (centres unmarked) [Example 7]	193%	46.4 mg/kg	six times	more active than propafenone and diprafenone at the same rate	92%	–	–
CC(C)N(CC(O)COc1ccccc1C(=O)CCc1cccn1C)C(C)C (centres unmarked) [Example 5]	85%	68.1 mg/kg	–	more active than propafenone and diprafenone at the same rate	66%	–	–
CCCNCC(O)COc1ccccc1C(=O)CCc1cccn1C (centres unmarked) [Example 4]	70%	46.4 mg/kg	twice	–	–	–	–
CCCNCC(O)COc1ccccc1C(=O)CCc1cnn(C)c1 (centres unmarked) [Example 9]	154%	31.6 mg/kg	–	inhibited arrhythmias to just as great an extent as propafenone, and to a far greater extent than diprafenone	–	about 5 times less	–
CC(C)NCC(O)COc1ccccc1C(=O)CCc1cccn1C (centres unmarked) [Example 3]	85%	68.1 mg/kg	–	–	–	–	–
CCC(C)(C)NCC(O)COc1ccccc1C(=O)CCc1ccccc1 (centres unmarked) [diprafenone, 2-[2-hydroxy-3-(1,1-dimethylpropylamino)-propoxy]-ω-phenylpropiophenone, reference compound]	33%	68.1 mg/kg	–	–	–	–	43%
